Where two headings read alike, the source gives them in different places.
Tests used:
Assay type in all cases: cell-based, human
[1] = system: phosphorylated ERK in MIA PaCa2 cells with Kras G12C mutation; assay: p-ERK HTRF assay for cells (Test Example 2); conditions: MIA PaCa2 cells, 2 hours with compound, read-out: p-ERK IC50
Experimental: MIA PaCa2 was a human pancreatic carcinoma cell line with Kras G12C mutation, which was cultured in a DMEM with 10% FBS and 2.5% Horse serum. Cells in logarithmic growth phase were detached with trypsin and EDTA, collected and counted, and 2.5E4 cells were seeded to a 96-well cell culture plate and cultured overnight. 1000× stock solutions of compounds at a concentration gradient of 3.16 were prepared by using DMSO, and diluted 200 times by the medium into 5× stock solutions of compounds. On the day after cell seeding, 5× stock solution of a compound was added to each well of cell culture plate, with a final concentration being 1× and a DMSO content of 0.1%. DMSO was used as the control. The residual culture was removed after culturing for 2 hours with the compound. To each well, 50 ul of cell lysis buffer was added and mixed uniformly and incubation for 30 minutes. Subsequently, 16 ul of mixed solution was transferred to a 96-well plate with white unclear bottom, and 16 ul of cell lysis buffer was added to the blank control group. After the completion of transfer, 4 ul of p-ERK HTRF antibody mixture was added to each well, and a value of fluorescence intensity was read after incubation for 4 hours. The inhibition rate (IR) of the compound was calculated by the following equation: IR (%)=(RLU control-RLU compound)/(RLU control−RLU blank)×100%. The value of IC50 was calculated by fitting a gradiently diluted concentration of the compound and the corresponding cell proliferation inhibition rate using a Prism 8 four-parameter method.

[2] = system: A549 cells with Kras G12S mutation; assay: Cell proliferation inhibition experiment, 3D spheroid, CellTiter-Glo (Test Example 1); conditions: 5 days
Experimental: (§1) NCI-H358 was a human NSCLC cell line with Kras G12C mutation, which was cultured in a RPMI-1640 medium with 10% fetal bovine serum (FBS). A549 was a human lung adenocarcinoma cell line with Kras G12S mutation, which was cultured in an F-12K medium with 10% FBS. Cells in logarithmic growth phase were detached with trypsin and EDTA, collected and counted, and H358 was regulated to 1.8E4 cells/ml by using an RPMI-1640 medium with 2% FBS, while A549 was regulated to 8.9E3 cells/ml with an F-12K medium containing 2% FBS. 800 (45 μl) H358 cells and 400 (45 μl) A549 cells were seeded to 384-well spheroid plates, respectively, and cultured overnight to establish 3D cell models. 1000× stock solutions of compounds at a concentration gradient of 3.16 were prepared by using DMSO, and diluted 100 times by the medium with 2% FBS into 10× stock solutions of compounds. On the day after cell seeding, 5 μl of 10× stock solution of a compound was added to each well of cell culture plate, with a final concentration being 1× and a DMSO content of 0.1%. DMSO was used as the control, and the medium with 2% FBS was used as blank control group. After 5 days of cell culture with the compound, 25 μl of CellTiter-Glo working solution was added to each well, and mixed uniformly at 400 rpm and incubation for 30 minutes. After standing at room temperature for 30 minutes, 40 μl of mixed solution was transferred to a 384-well plate with white clear bottom. A value of luminescence was then read, and a cell proliferation inhibition rate (IR) (%)=(RLU control-RLU compound)/(RLU control−RLU blank)×100%. The value of IC50 was calculated by fitting a gradiently diluted concentration of the compound and the corresponding cell proliferation inhibition rate using a Prism 6 four-parameter method.

[3] = system: NCI-H358 cells with Kras G12C mutation; assay: as above; conditions: 5 days
Experimental: as §1

[4] = system: MIA PaCa-2 cells with Kras G12C mutation; assay: Cell proliferation inhibition experiment, 3D spheroid, CellTiter-Glo (Test Example 3); conditions: Homo sapiens, MIA PaCa-2, 120 h, 5 days, read-out: MIA-PaCa2 IC50
Experimental: MIA PaCa-2 was a human pancreatic carcinoma cell line with Kras G12C mutation, which was cultured in a DMEM with 10% FBS and 2.5% Horse serum. A549 was a human lung adenocarcinoma cell line with Kras G12S mutation, which was cultured in an F-12K medium with 10% FBS. Cells in logarithmic growth phase were detached with trypsin and EDTA, collected and counted, and 200 MIA PaCa-2 cells and 400 A549 cells were seeded to 384-well spheroid plates, respectively, and cultured overnight to establish 3D cell models. 1000× stock solutions of compounds at a concentration gradient of 3.16 were prepared by using DMSO, and diluted 100 times by the medium into 10× stock solutions of compounds. On the day after cell seeding, 10× stock solution of a compound was added to each well of cell culture plate, with a final concentration being 1× and a DMSO content of 0.1%. DMSO was used as the control, and the medium was used as the blank. After 5 days of cell culture with the compound, 30 μl of CellTiter-Glo working solution was added to each well, and mixed uniformly and incubation for 30 minutes. After standing at room temperature for 30 minutes, 40 μl of mixed solution was transferred to a 384-well plate with white unclear bottom. A value of luminescence intensity was then read, and a cell proliferation inhibition rate (IR) (%)=(RLU control−RLU compound)/(RLU control−RLU blank)×100%. The value of IC50 was calculated by fitting a gradiently diluted concentration of the compound and the corresponding cell proliferation inhibition rate using an XLFit four-parameter method.

| SMILES | IC50 [1] [µM] | IC50 [2] [µM] | IC50 [3] [µM] | IC50 [4] [µM] | IC50 ([1]; Homo sapiens, MIA PaCa-2, 2 h) [µM] | IC50 ([2]; Homo sapiens, A549, 120 h) [µM] | IC50 ([3]; Homo sapiens, NCI-H358, 120 h) [µM] |
| --- | --- | --- | --- | --- | --- | --- | --- |
| C=CC(=O)N1C[C@@H]2C(=O)Nc3c(c4cc(F)c(-c5c(O)cccc5F)nc4n(-c4c(C)ccnc4C(C)C)c3=O)N2C[C@H]1C (single isomer, unassigned) [Compound Z35-1] | 0.249 | > 30 | 0.037 | – | – | – | – |
| C=CC(=O)N1C[C@@H]2C(=O)Nc3c(c4cc(F)c(-c5c(O)cccc5F)nc4n(-c4c(C)ccnc4C(C)C)c3=O)N2C[C@H]1C (single isomer, unassigned) [Compound Z35-2] | 0.049 | > 30 | 0.006 | – | – | – | – |
| [2H]C([2H])([2H])N1C(=O)[C@H]2CN(C(=O)C=C)[C@H](C)CN2c2c1c(=O)n(-c1c(C(C)C)ncnc1C(C)C)c1nc(-c3c(O)cccc3F)c(F)cc21 [Compound Z44, (2R,4aR)-3-acryloyl-8-(4,6-diisopropylpyrimidin-5-yl)-11-fluoro-10-(2-fluoro-6-hydroxyphenyl)-2-methyl-6-(methyl-d3)-2,3,4,4a,6,8-hexahydro-1H-pyrazino[1′,2′:4,5]pyrazino[2,3-c][1,8]naphthyridin-5,7-dione] | – | – | – | 0.034 | 0.088 | > 30 | 0.011 |
| C=CC(=O)N1CCN2c3c(c(=O)n(-c4c(C(C)C)ncnc4C(C)C)c4nc(-c5c(O)cccc5F)c(F)cc34)N(C)C(=O)[C@H]2C1 [Compound Z41, (4aR)-3-acryloyl-8-(4,6-diisopropylpyrimidin-5-yl)-11-fluoro-10-(2-fluoro-6-hydroxyphenyl)-6-methyl-2,3,4,4a,6,8-hexahydro-1H-pyrazino[1′,2′:4,5]pyrazino[2,3-c][1,8]naphthyridin-5,7-dione] | – | – | – | 0.044 | 0.279 | > 30 | 0.017 |
| C=CC(=O)N1CCN2c3c(c(=O)n(-c4c(C)ccnc4C(C)C)c4nc(-c5c(O)cccc5F)c(F)cc34)N(C)C(=O)[C@H]2C1 [Compound Z9, (4aR)-3-acryloyl-11-fluoro-10-(2-fluoro-6-hydroxyphenyl)-8-(2-isopropyl-4-methylpyridin-3-yl)-6-methyl-2,3,4,4a,6,8-hexahydro-1H-pyrazino[1′,2′:4,5]pyrazino[2,3-c][1,8,8]naphthyridin-5,7-dione] | – | – | – | 0.074 | 0.187 | – | 0.032 |
| C=CC(=O)N1C[C@@H]2C(=O)N(C)c3c(c4cc(F)c(-c5c(O)cccc5F)nc4n(-c4c(C)cc(C)nc4C(C)C)c3=O)N2C[C@H]1C [Compound Z46] | – | – | – | 0.068 | 0.224 | 10.3 | 0.012 |
| C=CC(=O)N1CCN2c3c(c(=O)n(-c4c(C)ccnc4C(C)C)c4nc(-c5c(O)cccc5F)c(F)cc34)N(CC)C(=O)[C@H]2C1 (single isomer, unassigned) [Compound Z30-1] | – | > 30 | 0.804 | – | – | – | – |
| C=CC(=O)N1CCN2c3c(c(=O)n(-c4c(C)ccnc4C(C)C)c4nc(-c5c(C)ccc6[nH]ncc56)c(F)cc34)OC[C@H]2C1 [Compound Z29, (4aR)-3-acryloyl-11-fluoro-8-(2-isopropyl-4-methylpyridin-3-yl)-10-(5-methyl-1H-indazol-4-yl)-1,2,3,4,4a,5-hexahydropyrazino[1′,2′:4,5][1,4]oxazino[2,3-c][1,8]naphthyridin-7(8H)-one] | – | – | – | – | – | 21.8 | 0.166 |
| C=CC(=O)N1CCN2c3c(cnc4c3CCN(c3c(C)ccc5[nH]ncc35)C4)OC[C@H]2C1 [Compound Z2, (R)-1-(3-(5-methyl-1H-indazol-4-yl)-1,2,3,4,8a,9,11,12-octahydropyrazino[1′,2′:4,5][1,4]oxazino[2,3-c][1,7]naphthyridin-10(8H)-yl)propyl-2-en-1-one] | – | > 10 | 0.773 | – | – | – | – |
| C=CC(=O)N1CCN2c3c(c(=O)n(-c4c(C)ccnc4C(C)C)c4nc(-c5c(O)cccc5F)c(F)cc34)OC[C@H]2C1 (single isomer, unassigned) [Compound Z1-2] | – | – | 0.198 | – | – | 16.5 | – |
| C=CC(=O)N1C[C@@H]2C(=O)N(C)c3c(c4cc(F)c(-c5c(O)cccc5F)nc4n(-c4nccnc4C(C)C)c3=O)N2C[C@H]1C [Compound Z22, (2R,4aR)-3-acryloyl-11-fluoro-10-(2-fluoro-6-hydroxyphenyl)-8-(3-isopropylpyrazin-2-yl)-2,6-dimethyl-2,3,4,4a,6,8-hexahydro-1H-pyrazino[1′,2′:4,5]pyrazino[2,3-c][1,8]naphthyridin-5,7-dione] | – | – | – | 0.18 | – | > 30 | 0.067 |
| C=CC(=O)N1CCN2c3c(c(=O)n(-c4c(C5CC5)ncnc4C4CC4)c4nc(-c5c(F)cccc5OC)c(F)cc34)N(C)C(=O)[C@H]2C1 [Compound Z32, (4aR)-3-acryloyl-11-fluoro-10-(2-fluoro-6-methoxyphenyl)-8-(4,6-bicyclopropylpyrimidin-5-yl)-6-methyl-2,3,4,4a,6,8-hexahydro-1H-pyrazino[1′,2′:4,5]pyrazino[2,3-c][1,8]naphthyridin-5,7-dione] | – | – | – | 0.17 | – | > 30 | 0.064 |
| C=CC(=O)N1CCN2c3c(c(=O)n(-c4c(C)ccnc4C(C)C)c4nc(-c5c(O)cccc5F)c(F)cc34)OC[C@@H]2C1 [Compound Z28, (4aS)-3-acryloyl-11-fluoro-10-(2-fluoro-6-hydroxyphenyl)-8-(2-isopropyl-4-methylpyridin-3-yl)-1,2,3,4,4a,5-hexahydropyrazino[1′,2′:4,5][1,4]oxazino[2,3-c][1,8]naphthyridin-7(8H)-one] | – | – | – | 0.234 | – | 16.9 | 0.09 |
| C=CC(=O)N1CCN2c3c(c(=O)n(-c4c(C5CC5)ncnc4C4CC4)c4nc(-c5c(O)cccc5F)c(Cl)cc34)N(C)C(=O)[C@H]2C1 [Compound Z72] | – | – | – | – | 0.106 | – | – |
| C=CC(=O)N1C[C@@H]2C(=O)N(C)c3c(c4cc(F)c(-c5c(O)cccc5F)nc4n(-c4c(C(C)C)nn(C)c4C)c3=O)N2C[C@H]1C [Compound Z47, (2R,4aR)-3-acryloyl-11-fluoro-10-(2-fluoro-6-hydroxyphenyl)-8-(3-isopropyl-1,5-dimethyl-1H-pyrazol-4-yl)-2,6-dimethyl-2,3,4,4a,6,8-hexahydro-1H-pyrazino[1′,2′:4,5]pyrazino[2,3-c][1,8]naphthyridin-5,7-dione] | – | – | – | 0.083 | – | > 30 | 0.031 |
| C=CC(=O)N1CC2C(=O)N(C)c3c(c4cc(F)c(-c5c(O)cccc5F)nc4n(-c4c(C(F)(F)F)ccnc4C(C)C)c3=O)N2C[C@H]1C (single isomer, unassigned) [Compound Z49-2] | – | > 30 | 0.044 | – | – | – | – |

Source: patent US12054497B2, “Substituted heterocyclic fused cyclic compound, preparation method therefor and pharmaceutical use thereof” (GENFLEET THERAPEUTICS (SHANGHAI) INC., priority 2019, dated 2024)
